Test results as given in patent US20230303497A1, “BENZYLAMINE OR BENZYL ALCOHOL DERIVATIVE AND USES THEREOF” (CHENGDU HYPERWAY PHARMACEUTICALS CO., LTD, priority 2020, published 2023).
Like-named read-outs stand apart in the source and are kept apart here.

Legend:
[1] = biological target: NaV1.1 (Homo sapiens (Human), UniProt P35498); assay: Selectivity test for Nav ion channel subtypes: NaV1.1 (HEK293, patch clamp); type: cell-based; settings: 1 uM; HEK293 cells
Procedure: (§1) Test Case 3: Compound Selectivity Test for Nav Ion Channel Subtypes
(§2) The aim of this test is to investigate effect of compounds on human Na ion channel cells expressed in steady-state (NaV1.1, NaV1.3, NaV1.4, NaV1.5, NaV1.6, NaV1.7). After Na ion currents is stabilized, the effect can be obtained by comparing the magnitude of Na channel currents before and after the application of the compounds.
(§3) The test compound is stored at a concentration of 9 mM in dimethyl sulfoxide (DMSO), and on the day of testing, dissolve in extracellular solution, then prepare to a screening concentration of 1 uM.
(§4) All experiments are performed at room temperature. Each cell itself is taken as the corresponding control.
(§5) At least one cell is tested per concentration.
(§6) HEK293 cells steadily expressing NaV1.1-, NaV1.3-, NaV1.4-, NaV1.5-, NaV1.6-ion channels; CHO cells expressing steadily NaV1.7 ion channel.
(§7) The intracellular fluid (mM) is: Aspartic acid, 140; MgCl2, 2; EGTA 11; HEPES, 10; pH 7.2 (CsOH titration). […] Electrodes are drawn with PC-10 (Narishige, Japan). Recording is performed with whole-cell diaphragm clamp.
(§8) Cells are clamped at −80 mV and then depolarized to −10 mV with a sustained 10 ms square wave to obtain Na ion channel currents (see the FIGURE). This process is repeated every 5 seconds. […] The strength of the block is calculated after the response is stabilized.

[2] = In vivo pharmacokinetic testing of compounds in rats; settings: male SD rats, single oral dose 100 mg/kg, plasma, VX-150 dosed as prodrug, active form analysed
Procedure: Test Case 4: In Vivo Pharmacokinetic Testing of Compounds in Rats
All SD rats in the test are male and are purchased from Shanghai Sippe-Bk Lab Animal Co., Ltd. Each compound is administered orally (100 mg/kg, 3 rats per group) at single dose to SD rats for pharmacokinetic study. The solutions are prepared on the same day of administration, e.g., the tested compound is suspended in 5% DMSO+95% saline, get vortexed for 2 min, and sonicated for 5 min to prepare a drug delivery system. The animals are fasted for 10-14 hours before oral administration, and resumed food 4 hours after administration. After oral administration by gavage in SD rats, pharmacokinetic samples are collected from jugular vein at the following time points: 0, 15 min, 30 min, 1 h, 2 h, 4 h, 6 h, 8 h and 24 h. Three whole blood samples are collected at each time point in a volume of about 0.2 mL and anticoagulated using sodium heparin. Blood samples are placed on ice immediately after collection and plasma is separated by centrifugation within 1 h (centrifugation conditions: 6800 rpm, 6 min, 2-8° C.). The collected plasma is stored in a −80° C. refrigerator prior to analysis.
In pharmacokinetic tests in rat, the control compound VX-150 is a prodrug (WO2015089361, compound 9), after administration, analysis is performed to test its active form (WO2014120808, compound 10). The aforementioned in vitro pharmacological tests are performed using the active ingredient (WO2014120808, compound 10).

[3] = biological target: NaV1.3 (Homo sapiens (Human), UniProt Q9NY46); assay: Selectivity test for Nav ion channel subtypes: NaV1.3 (HEK293, patch clamp); type: cell-based; settings: 1 uM; HEK293 cells
Procedure: as §1, §2, §3, §4, §5, §6, §7, §8

[4] = biological target: NaV1.7 (Homo sapiens (Human), UniProt Q15858); assay: Selectivity test for Nav ion channel subtypes: NaV1.7 (CHO cells, patch clamp); type: cell-based; settings: 1 uM
Procedure: as §1, §2, §3, §4, §5, §6, §7, §8

[5] = biological target: NaV1.6 (Homo sapiens (Human), UniProt Q9UQD0); assay: Selectivity test for Nav ion channel subtypes: NaV1.6 (HEK293, patch clamp); type: cell-based; settings: 1 uM; HEK293 cells
NaV1.6, sequence (Q9UQD0 whole entry): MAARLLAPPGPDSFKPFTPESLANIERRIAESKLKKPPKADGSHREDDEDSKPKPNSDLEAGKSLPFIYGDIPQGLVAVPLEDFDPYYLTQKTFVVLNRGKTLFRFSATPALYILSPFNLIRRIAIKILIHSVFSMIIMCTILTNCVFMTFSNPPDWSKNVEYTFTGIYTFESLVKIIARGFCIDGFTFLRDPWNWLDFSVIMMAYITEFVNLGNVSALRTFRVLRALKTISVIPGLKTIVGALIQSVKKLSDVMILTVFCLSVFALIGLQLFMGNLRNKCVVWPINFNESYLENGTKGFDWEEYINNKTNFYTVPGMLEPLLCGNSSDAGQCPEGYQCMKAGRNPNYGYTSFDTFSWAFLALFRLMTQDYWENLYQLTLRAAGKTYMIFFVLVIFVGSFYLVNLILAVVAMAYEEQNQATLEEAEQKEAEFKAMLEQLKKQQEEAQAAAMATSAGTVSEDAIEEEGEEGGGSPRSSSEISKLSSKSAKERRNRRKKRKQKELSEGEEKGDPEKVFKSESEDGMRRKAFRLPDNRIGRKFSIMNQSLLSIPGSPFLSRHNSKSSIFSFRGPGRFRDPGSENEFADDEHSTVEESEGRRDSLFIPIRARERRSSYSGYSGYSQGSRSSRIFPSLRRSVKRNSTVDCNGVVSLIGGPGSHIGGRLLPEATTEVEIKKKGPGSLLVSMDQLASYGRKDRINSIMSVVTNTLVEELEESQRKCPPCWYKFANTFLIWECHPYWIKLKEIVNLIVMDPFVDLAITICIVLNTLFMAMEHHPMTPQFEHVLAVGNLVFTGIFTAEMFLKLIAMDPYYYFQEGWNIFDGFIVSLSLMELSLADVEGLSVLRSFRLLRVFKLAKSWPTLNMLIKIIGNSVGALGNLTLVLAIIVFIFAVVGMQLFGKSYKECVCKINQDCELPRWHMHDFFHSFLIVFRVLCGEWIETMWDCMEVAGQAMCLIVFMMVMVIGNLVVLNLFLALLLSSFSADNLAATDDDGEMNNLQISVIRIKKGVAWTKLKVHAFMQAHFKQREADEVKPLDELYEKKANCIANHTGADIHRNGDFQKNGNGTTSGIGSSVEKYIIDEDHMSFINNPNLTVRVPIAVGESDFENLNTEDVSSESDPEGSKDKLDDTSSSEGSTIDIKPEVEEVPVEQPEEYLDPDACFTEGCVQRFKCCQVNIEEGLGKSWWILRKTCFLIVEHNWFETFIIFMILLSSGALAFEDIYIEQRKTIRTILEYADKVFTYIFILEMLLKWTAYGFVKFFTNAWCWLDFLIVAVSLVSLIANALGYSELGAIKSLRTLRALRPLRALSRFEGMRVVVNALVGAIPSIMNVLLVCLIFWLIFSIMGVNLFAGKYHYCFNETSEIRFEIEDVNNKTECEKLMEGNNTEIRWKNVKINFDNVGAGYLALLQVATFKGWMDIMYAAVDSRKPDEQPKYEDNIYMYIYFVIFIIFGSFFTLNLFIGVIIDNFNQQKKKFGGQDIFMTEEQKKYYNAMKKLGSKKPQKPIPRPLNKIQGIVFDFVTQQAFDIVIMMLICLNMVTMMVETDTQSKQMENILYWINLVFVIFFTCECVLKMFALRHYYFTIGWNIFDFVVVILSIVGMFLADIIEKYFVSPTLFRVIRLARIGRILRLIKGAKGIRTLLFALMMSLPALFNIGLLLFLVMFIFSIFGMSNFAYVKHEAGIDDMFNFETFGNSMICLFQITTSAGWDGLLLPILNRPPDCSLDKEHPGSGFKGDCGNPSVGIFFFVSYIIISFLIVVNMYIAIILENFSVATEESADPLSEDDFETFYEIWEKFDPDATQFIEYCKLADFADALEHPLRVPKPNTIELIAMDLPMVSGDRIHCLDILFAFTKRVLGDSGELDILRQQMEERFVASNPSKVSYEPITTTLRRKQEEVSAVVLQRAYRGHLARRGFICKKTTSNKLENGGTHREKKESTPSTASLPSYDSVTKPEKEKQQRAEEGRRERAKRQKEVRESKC
Procedure: as §1, §2, §3, §4, §5, §6, §7, §8

[6] = biological target: hERG ion channels (Homo sapiens (Human), UniProt Q12809); assay: Inhibition activity test on hERG ion channels in HEK293 cells (cardiac safety, patch clamp)
hERG ion channels, sequence (Q12809 whole entry): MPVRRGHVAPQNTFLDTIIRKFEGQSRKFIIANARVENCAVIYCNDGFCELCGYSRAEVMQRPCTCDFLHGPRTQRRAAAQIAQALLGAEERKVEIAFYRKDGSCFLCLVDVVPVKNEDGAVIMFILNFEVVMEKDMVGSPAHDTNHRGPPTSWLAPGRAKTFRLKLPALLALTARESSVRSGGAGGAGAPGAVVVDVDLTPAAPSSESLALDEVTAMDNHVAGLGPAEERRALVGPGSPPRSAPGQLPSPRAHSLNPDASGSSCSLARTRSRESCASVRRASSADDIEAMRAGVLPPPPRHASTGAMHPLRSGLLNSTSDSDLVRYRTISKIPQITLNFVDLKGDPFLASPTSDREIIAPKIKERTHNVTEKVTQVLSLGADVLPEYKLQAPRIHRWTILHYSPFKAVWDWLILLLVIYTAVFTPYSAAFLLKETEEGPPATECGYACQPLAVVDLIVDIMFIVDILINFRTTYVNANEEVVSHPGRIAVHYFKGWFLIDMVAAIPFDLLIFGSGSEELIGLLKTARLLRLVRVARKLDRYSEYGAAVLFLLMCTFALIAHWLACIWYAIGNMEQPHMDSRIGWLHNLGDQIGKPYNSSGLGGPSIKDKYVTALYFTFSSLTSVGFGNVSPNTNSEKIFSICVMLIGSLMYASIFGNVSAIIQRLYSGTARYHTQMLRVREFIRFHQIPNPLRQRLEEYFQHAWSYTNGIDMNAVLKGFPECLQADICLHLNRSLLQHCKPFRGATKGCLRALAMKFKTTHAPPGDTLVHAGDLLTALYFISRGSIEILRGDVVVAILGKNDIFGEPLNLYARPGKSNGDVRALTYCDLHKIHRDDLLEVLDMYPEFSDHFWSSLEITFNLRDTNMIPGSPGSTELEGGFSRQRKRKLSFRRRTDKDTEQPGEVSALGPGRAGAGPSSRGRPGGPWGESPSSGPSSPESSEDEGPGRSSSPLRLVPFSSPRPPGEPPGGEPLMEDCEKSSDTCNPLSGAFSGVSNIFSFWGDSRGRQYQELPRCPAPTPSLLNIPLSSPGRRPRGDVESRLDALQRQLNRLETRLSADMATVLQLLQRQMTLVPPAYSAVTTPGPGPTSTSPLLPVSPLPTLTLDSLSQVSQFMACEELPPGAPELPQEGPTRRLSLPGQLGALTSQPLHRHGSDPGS
Procedure: This experiment is used as a cardiac safety test of compound.
The reagents are purchased from Sigma (St. Louis, MO) except NaOH and KOH for acid-base titration. Final concentrations of tested solutions are prepared on the testing day and dissolved in extracellular fluid. […] All the test solutions and the control solutions contain 0.3% DMSO. Intracellular fluid (mM) contains: K Aspartate, 130; MgCl2, 5; EGTA 5; HEPES, 10; Tris-ATP 4; pH 7.2 (KOH titration).
Cells: all experiments is performed at room temperature. Each cell itself is taken as the corresponding control.
Compounds are all perfused using a perfusion system that utilizes the gravity. At least two cells are tested per concentration. After current stabilization (or 5 minutes), the change in current magnitude before and after the use of the compound is compared to calculate the blocking effect of the compound.
The method of operation is the same as that of the test compound.
Electrophysiology: Transfer the Cells to the perfusion tank and perfuse with extracellular fluid. The intracellular fluid (mM) contains: K Aspartate, 130; MgCl2, 5; EGTA 5; HEPES, 10; Tris-ATP 4; pH 7.2 (KOH titration). The intracellular fluid is stored in small quantities in portions in a −80° C. refrigerator, and melt on the day of the experiment. Electrodes are drawn with PC-10 (Narishige, Japan). Recording is performed with whole-cell diaphragm clamp. Noise is filtered with one-fifth of the sampling frequency.
This process is repeated every 20 seconds. The hERG tail current is the pure hERG current. The maximum tail current triggered by the second square wave is detected, and when the current is stabilized, the test compound is perfused. The strength of the block is calculated when the response is stabilized.

[7] = biological target: NaV1.4 (Homo sapiens (Human), UniProt P35499); assay: Selectivity test for Nav ion channel subtypes: NaV1.4 (HEK293, patch clamp); type: cell-based; settings: 1 uM; HEK293 cells
Procedure: as §1, §2, §3, §4, §5, §6, §7, §8

[8] = biological target: NaV1.5 (Homo sapiens (Human), UniProt Q14524); assay: Selectivity test for Nav ion channel subtypes: NaV1.5 (HEK293, patch clamp); type: cell-based; settings: 1 uM; HEK293 cells
Procedure: as §1, §2, §3, §4, §5, §6, §7, §8

[9] = biological target: human NaV1.8 ion channel (Homo sapiens (Human), UniProt Q9Y5Y9); assay: Compound inhibition activity on human NaV1.8 ion channel in HEK293 cells (whole-cell patch clamp); type: cell-based; settings: 100 nm concentration, HEK293 cells, resting protocol; for inhibition at 0.1 µM: read-out: Inhibition ratio of compounds against Nav1.8 (Activity of inhibition)
human NaV1.8 ion channel, sequence (Q9Y5Y9 whole entry): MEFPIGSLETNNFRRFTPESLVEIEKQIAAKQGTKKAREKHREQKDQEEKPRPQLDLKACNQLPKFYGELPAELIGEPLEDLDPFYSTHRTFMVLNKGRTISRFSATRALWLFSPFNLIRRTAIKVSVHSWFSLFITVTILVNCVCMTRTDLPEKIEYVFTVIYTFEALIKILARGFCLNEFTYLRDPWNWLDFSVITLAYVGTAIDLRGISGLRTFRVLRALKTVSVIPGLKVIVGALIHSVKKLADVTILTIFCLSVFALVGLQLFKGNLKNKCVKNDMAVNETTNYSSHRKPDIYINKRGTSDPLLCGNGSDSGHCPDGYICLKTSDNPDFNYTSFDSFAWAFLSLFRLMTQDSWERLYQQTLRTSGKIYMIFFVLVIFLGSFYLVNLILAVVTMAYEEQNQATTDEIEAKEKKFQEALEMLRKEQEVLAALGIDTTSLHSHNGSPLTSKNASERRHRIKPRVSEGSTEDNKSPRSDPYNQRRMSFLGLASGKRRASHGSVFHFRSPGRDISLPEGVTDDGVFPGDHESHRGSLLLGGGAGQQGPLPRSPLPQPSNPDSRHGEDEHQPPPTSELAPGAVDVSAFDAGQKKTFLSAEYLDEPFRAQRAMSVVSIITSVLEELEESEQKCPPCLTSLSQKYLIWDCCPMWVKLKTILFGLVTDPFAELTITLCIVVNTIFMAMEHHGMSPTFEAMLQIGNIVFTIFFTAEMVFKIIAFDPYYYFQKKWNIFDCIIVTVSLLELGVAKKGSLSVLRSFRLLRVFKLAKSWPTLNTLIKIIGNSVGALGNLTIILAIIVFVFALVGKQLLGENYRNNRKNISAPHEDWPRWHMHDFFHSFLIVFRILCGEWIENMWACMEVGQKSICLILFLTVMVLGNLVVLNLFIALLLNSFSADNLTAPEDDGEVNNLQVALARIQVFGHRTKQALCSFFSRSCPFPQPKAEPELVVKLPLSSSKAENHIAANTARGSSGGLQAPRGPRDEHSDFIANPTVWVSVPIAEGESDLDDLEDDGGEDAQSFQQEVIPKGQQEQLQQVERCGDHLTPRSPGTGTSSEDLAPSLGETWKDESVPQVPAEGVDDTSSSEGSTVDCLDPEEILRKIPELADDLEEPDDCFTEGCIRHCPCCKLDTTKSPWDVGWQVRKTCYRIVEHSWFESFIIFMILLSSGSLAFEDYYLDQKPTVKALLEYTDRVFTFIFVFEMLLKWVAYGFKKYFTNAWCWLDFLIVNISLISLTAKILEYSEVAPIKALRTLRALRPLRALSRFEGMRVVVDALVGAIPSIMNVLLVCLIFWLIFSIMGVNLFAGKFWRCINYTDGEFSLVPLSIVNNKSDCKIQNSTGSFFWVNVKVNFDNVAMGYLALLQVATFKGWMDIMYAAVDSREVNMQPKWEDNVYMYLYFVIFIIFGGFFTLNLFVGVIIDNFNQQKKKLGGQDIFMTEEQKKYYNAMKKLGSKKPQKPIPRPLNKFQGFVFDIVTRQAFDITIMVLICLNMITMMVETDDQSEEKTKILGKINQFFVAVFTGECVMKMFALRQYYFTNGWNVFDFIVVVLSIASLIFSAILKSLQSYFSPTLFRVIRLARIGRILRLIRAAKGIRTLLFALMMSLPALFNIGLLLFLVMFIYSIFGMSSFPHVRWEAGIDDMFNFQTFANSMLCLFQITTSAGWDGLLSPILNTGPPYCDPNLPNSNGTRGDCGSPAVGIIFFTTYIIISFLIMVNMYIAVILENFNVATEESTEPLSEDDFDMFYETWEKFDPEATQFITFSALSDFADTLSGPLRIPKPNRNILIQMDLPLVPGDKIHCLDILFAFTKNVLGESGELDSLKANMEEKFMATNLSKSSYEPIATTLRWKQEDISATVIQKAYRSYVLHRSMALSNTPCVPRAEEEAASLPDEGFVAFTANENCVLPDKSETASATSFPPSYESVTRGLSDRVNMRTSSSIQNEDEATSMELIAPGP

Structure (SMILES)	Inhibition ratio on Nav1.1 [1] [%]	AUC [2] [ng·h/mL]	Cmax [2] [ng/mL]	T1/2 [2] [h]	Inhibition ratio on Nav1.3 [3] [%]	Inhibition ratio on Nav1.7 [4] [%]	Inhibition ratio on Nav1.6 [5] [%]	Inhibition ratio on Nav1.4 [7] [%]	Inhibition ratio of Nav1.8 (Activity of inhibition) [9]	half-life ([2]; rat) [h]	AUC ([2]; rat, read-out: AUC) [ng·h/mL]	Cmax ([2]; rat, read-out: Cmax) [ng/mL]	inhibition at 0.1 µM [9] [%]	IC50 [6] [µM]	Inhibition ratio on Nav1.5 [8] [%]	IC50 ([6]; human, pH 7.4) [µM]
Cc1cc(F)ccc1Oc1cc(C(F)(F)F)c(Cl)cc1C(=O)Nc1cnnc(OC[C@H](O)CO)c1 [Example 116]	1.2				3.7	<1	2.6	<1		8.7	42500	2570	50 to 80		<1	15.6
Cc1cc(F)ccc1Oc1cc(C(F)(F)F)c(Cl)cc1C(=O)Nc1ccnc(OC[C@H](O)CO)c1 [Example 114, (R)-5-chloro-N-(2-(2,3-dihydroxypropoxy)pyridin-4-yl)-2-(4-fluoro-2-methylphenoxy)-4-(trifluoromethyl) benzamide]	4.8				4.4	<1	8.3	2.7		11.7	154000	7640	> 80	22.3	5.9	
Cc1cc(F)ccc1Oc1cc(C2CC2)c(C(F)(F)F)cc1C(=O)Nc1ccnc(OC[C@H](O)CO)c1 [Example 104]	1.5				4.3	1.3	2.8	<1		5.1	58000	5140	> 80		<1	3.8

Further lines, with some results ahead:

Inhibition ratio on Nav1.1 [1] [%]	AUC [2] [ng·h/mL]	Cmax [2] [ng/mL]	T1/2 [2] [h]	Inhibition ratio on Nav1.3 [3] [%]	Inhibition ratio on Nav1.7 [4] [%]	Inhibition ratio on Nav1.6 [5] [%]	Inhibition ratio on Nav1.4 [7] [%]	Inhibition ratio of Nav1.8 (Activity of inhibition) [9]	half-life ([2]; rat) [h]	AUC ([2]; rat, read-out: AUC) [ng·h/mL]	Cmax ([2]; rat, read-out: Cmax) [ng/mL]	inhibition at 0.1 µM [9] [%]	Structure (SMILES)	IC50 [6] [µM]	Inhibition ratio on Nav1.5 [8] [%]	IC50 ([6]; human, pH 7.4) [µM]
<1	13859	1176	2.2	2.2	8.7	1.7	3.6	B (80 > B >= 50)					Cc1cc(F)ccc1Oc1cc(C(F)(F)F)ccc1C(=O)Nc1ccn(COP(=O)(O)O)c(=O)c1 [VX-150, reference compound]	7	15.4	
<1				<1	<1	5.1	1.4		1.9	44500	5190	> 80	Cc1cc(F)ccc1Oc1cc(C2CC2)c(C(F)(F)F)cc1C(=O)Nc1ccc(F)c(OC[C@H](O)CNC(=O)CO)c1 [Example 119]		2.8	4.2
<1				1.2	<1	<1	<1		3	114000	9570	> 80	Cc1cc(F)ccc1Oc1cc(C(F)(F)F)c(Cl)cc1C(=O)Nc1ccc(F)c(OC[C@H](O)CNC(=O)CO)c1 [Example 117]	6	5.0	
